Positions of bridges follow the written chain, without caps; N, C: chain ends. Non-standard residues stand in square brackets, D forms with d. Residues, ends and D or L forms follow the SMILES beside them. Trp(1-Me) = Cn1cc(C[C@H](N)C(=O)O)c2ccccc21; 1Nal = N[C@@H](Cc1cccc2ccccc12)C(=O)O; 2Nal = N[C@@H](Cc1ccc2ccccc2c1)C(=O)O; Sar = CNCC(=O)O
Key:
[1] = system: classical complement pathway; experiment: In vitro haemolysis assay (inhibition of classical complement pathway); assay type: cell-based, human; conditions: Table 3; human serum, sensitized sheep red blood cells; read-out: IC50[nM], in vitro analysis of inhibition of hemolysis
Summary of the method: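 Serially diluted compound (9 points) was preincubated 15 min at room temperature with diluted human serum, titrated per batch to give 70-90% maximal haemolysis, in Tris/casein buffer pH 7.4 with Mg2+/Ca2+. Antibody-sensitized sheep erythrocytes were then added for 30 min at 37° C, and the reaction was stopped with EDTA. Haemolysis was read at A405, with IC50 from 4PL fit.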

[2] = Solubility test at 10 mg/mL (visual inspection and light scattering); assay type: physicochemical; conditions: for Solubility, Condition 1 Acetate pH 4: 10 mg/mL compound in 100 mM acetate pH 4; for Solubility, Condition 2 Acetate pH 5: 10 mg/mL compound in 100 mM acetate pH 5; for Solubility, Condition 3 Phosphate pH 6: 10 mg/mL compound in 100 mM phosphate pH 6; for Solubility, Condition 4 Phosphate pH 7: 10 mg/mL compound in 100 mM phosphate pH 7; for Solubility, Condition 5 Phosphate pH 7.5: 10 mg/mL compound in 100 mM phosphate pH 7.5
Protocol: The solubility of compounds was assessed by measuring light scattering over a pH interval from pH 4 to pH 7.5.
Compounds were dissolved in a stock solution of 20 mg/mL in H2O at pH 2.5 or pH 10.
These stock solutions were diluted 1:1 with 200 mM buffered solution to reach a final solution of 10 mg/mL compound in 100 mM buffer. The 5 investigated conditions were (1) acetate pH 4.0, (2) acetate pH 5.0, (3) phosphate pH 6.0, (4) phosphate pH 7 and (5) phosphate pH 7.5.
Visual inspection included manually checking the 96 well plate for wells that are clear or non-clear. In addition to this a picture of the 96 well plate is taken.
Absorbance was measured at four wavelengths: 280 nm, 325 nm, 340 nm and 360 nm in an UV transparent 96 well microplate in a SpectraMax 190 microplate reader (Molecular Devices).
The criteria for this was a combination of visual inspection and light scattering not exceeding 0.1 AU, where values below 0.1 AU are good in visually clear samples. […]

Compound | IC50 [1] [nM] | Solubility, Condition 1 Acetate pH 4 [2] | Solubility, Condition 2 Acetate pH 5 [2] | Solubility, Condition 3 Phosphate pH 6 [2] | Solubility, Condition 4 Phosphate pH 7 [2] | Solubility, Condition 5 Phosphate pH 7.5 [2]
CC[C@H](C)[C@@H]1NC(=O)[C@@H](NC(=O)[C@H](Cc2ccccc2)NC(=O)[C@H](CCC(=O)O)NC(=O)[C@H](CO)NC(C)=O)CSSC[C@@H](C(=O)N(C)CC(=O)N[C@@H](CCC(=O)O)C(N)=O)NC(=O)[C@H](CCCNC(=N)N)NC(=O)[C@H](Cc2c[nH]cn2)NC(=O)[C@H](CCC(=O)O)NC(=O)CNC(=O)[C@H](Cc2c[nH]c3ccccc23)NC(=O)[C@H](CC(=O)O)NC(=O)[C@H](CCC(N)=O)NC(=O)[C@H](Cc2cn(C)c3ccccc23)NC1=O [Compound 78] (Ac-SEFCI[Trp(1-Me)]QDWGEHRC[Sar]E-NH2; disulfide 4-14) | < 100 | − (denotes lack of solubility at the given condition, as UV absorbance at 340 nm exceeds 0.1 AU and/or it is visibly turbid or contains particles.) | − (denotes lack of solubility at the given condition, as UV absorbance at 340 nm exceeds 0.1 AU and/or it is visibly turbid or contains particles.) | + (denotes solubility at the given condition, as determined by UV absorbance being less than 0.1 AU at 340 nm and the sample being clear when manually inspected.) | + (denotes solubility at the given condition, as determined by UV absorbance being less than 0.1 AU at 340 nm and the sample being clear when manually inspected.) | + (denotes solubility at the given condition, as determined by UV absorbance being less than 0.1 AU at 340 nm and the sample being clear when manually inspected.)
CC[C@H](C)[C@@H]1NC(=O)[C@@H](NC(=O)[C@H](Cc2ccccc2)NC(=O)[C@H](N)Cc2ccc(O)cc2)CSSC[C@@H](C(=O)N[C@H](C(=O)NCC(=O)N[C@@H](C)C(=O)N[C@@H](CCC(=O)O)C(=O)N[C@@H](CO)C(N)=O)[C@@H](C)O)NC(=O)[C@H](CCCNC(=N)N)NC(=O)[C@H](Cc2c[nH]cn2)NC(=O)[C@H](CCC(=O)O)NC(=O)CN(C)C(=O)[C@H](Cc2c[nH]c3ccccc23)NC(=O)[C@H](CC(=O)O)NC(=O)[C@H](CCC(N)=O)NC(=O)[C@H](Cc2cn(C)c3ccccc23)NC1=O [Compound 73, H-{d}YFC(1)I[1-Me-Trp]QDW[Sar]EHRC(1)TGAES-NH2] (H-[dY]FCI[Trp(1-Me)]QDW[Sar]EHRCTGAES-NH2; disulfide 3-13) | < 100 | + (denotes solubility at the given condition, as determined by UV absorbance being less than 0.1 AU at 340 nm and the sample being clear when manually inspected.) | − (denotes lack of solubility at the given condition, as UV absorbance at 340 nm exceeds 0.1 AU and/or it is visibly turbid or contains particles.) | − (denotes lack of solubility at the given condition, as UV absorbance at 340 nm exceeds 0.1 AU and/or it is visibly turbid or contains particles.) | + (denotes solubility at the given condition, as determined by UV absorbance being less than 0.1 AU at 340 nm and the sample being clear when manually inspected.) | + (denotes solubility at the given condition, as determined by UV absorbance being less than 0.1 AU at 340 nm and the sample being clear when manually inspected.)
CC[C@H](C)[C@@H]1NC(=O)[C@@H](NC(=O)[C@H](Cc2ccccc2)NC(=O)[C@H](C)NC(=O)[C@H](CO)NC(=O)CNC(=O)[C@H](CCC(=O)O)NC(C)=O)CSSC[C@@H](C(=O)N[C@H](C(=O)N[C@@H](CCC(=O)O)C(N)=O)[C@@H](C)O)NC(=O)[C@H](CCCNC(=N)N)NC(=O)[C@H](Cc2c[nH]cn2)NC(=O)[C@H](CCC(=O)O)NC(=O)CNC(=O)[C@H](Cc2c[nH]c3ccccc23)NC(=O)[C@H](CC(=O)O)NC(=O)[C@H](CCC(N)=O)NC(=O)[C@H](Cc2cccc3ccccc23)NC1=O [Compound 56] (Ac-EGSAFCI[1Nal]QDWGEHRCTE-NH2; disulfide 6-16) | < 100 | − (denotes lack of solubility at the given condition, as UV absorbance at 340 nm exceeds 0.1 AU and/or it is visibly turbid or contains particles.) | − (denotes lack of solubility at the given condition, as UV absorbance at 340 nm exceeds 0.1 AU and/or it is visibly turbid or contains particles.) | + (denotes solubility at the given condition, as determined by UV absorbance being less than 0.1 AU at 340 nm and the sample being clear when manually inspected.) | + (denotes solubility at the given condition, as determined by UV absorbance being less than 0.1 AU at 340 nm and the sample being clear when manually inspected.) | + (denotes solubility at the given condition, as determined by UV absorbance being less than 0.1 AU at 340 nm and the sample being clear when manually inspected.)
CC[C@H](C)[C@@H]1NC(=O)[C@@H](NC(=O)[C@H](Cc2ccc(O)cc2)NC(C)=O)CSSC[C@@H](C(=O)N[C@H](C(=O)NCC(=O)N[C@@H](C)C(=O)N[C@@H](CCC(=O)O)C(=O)N[C@@H](CO)C(N)=O)[C@@H](C)O)NC(=O)[C@H](CCCNC(=N)N)NC(=O)[C@H](Cc2c[nH]cn2)NC(=O)[C@H](CCC(=O)O)NC(=O)CNC(=O)[C@H](Cc2c[nH]c3ccccc23)NC(=O)[C@H](CC(=O)O)NC(=O)[C@H](CCC(N)=O)NC(=O)[C@H](Cc2ccc3ccccc3c2)NC1=O [Compound 65] (Ac-YCI[2Nal]QDWGEHRCTGAES-NH2; disulfide 2-12) | < 100 | − (denotes lack of solubility at the given condition, as UV absorbance at 340 nm exceeds 0.1 AU and/or it is visibly turbid or contains particles.) | − (denotes lack of solubility at the given condition, as UV absorbance at 340 nm exceeds 0.1 AU and/or it is visibly turbid or contains particles.) | + (denotes solubility at the given condition, as determined by UV absorbance being less than 0.1 AU at 340 nm and the sample being clear when manually inspected.) | + (denotes solubility at the given condition, as determined by UV absorbance being less than 0.1 AU at 340 nm and the sample being clear when manually inspected.) | + (denotes solubility at the given condition, as determined by UV absorbance being less than 0.1 AU at 340 nm and the sample being clear when manually inspected.)

From patent US20220306695A1, “COMPSTATIN ANALOGUES AND THEIR MEDICAL USES” (priority 2019, published 2022)
